Experimental data as given in the supplement of paper PMC10307832.

Assays:
Test in all cases: relative viability (nuclei count vs DMSO), 5 days (fraction); higher = more cells survive
[1] = compound: COc1cc(-c2nn([C@H]3CC[C@H](N4CCN(C(C)=O)CC4)CC3)c3ncnc(N)c23)ccc1NC(=O)c1cc2ccccc2n1C + CS(=O)(=O)N1CCN(Cc2cc3nc(-c4cccc5[nH]ncc45)nc(N4CCOCC4)c3s2)CC1 [Pictilisib] (partner 1 µM)
Procedure, shortened: (§1)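 Lung cancer cell lines in 1536-well plates got either a single drug or a fixed anchor-drug dose together with five library-drug doses (not always all listed) in √10 steps, by pin tool, on the day after seeding. Nuclei were counted after 5 days, and relative viability is the treated-to-vehicle ratio of nuclei counts. Values are medians of duplicate plates.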

[2] = compound: COc1cc(-c2nn([C@H]3CC[C@H](N4CCN(C(C)=O)CC4)CC3)c3ncnc(N)c23)ccc1NC(=O)c1cc2ccccc2n1C + CS(=O)(=O)CCNCc1ccc(-c2ccc3ncnc(Nc4ccc(OCc5cccc(F)c5)c(Cl)c4)c3c2)o1 [Lapatinib] (partner 2 µM)
Procedure, shortened: as §1

[3] = compound: CO[C@@H]1[C@H](N(C)C(=O)c2ccccc2)C[C@H]2O[C@]1(C)n1c3ccccc3c3c4c(c5c6ccccc6n2c5c31)C(=O)NC4 [Midostaurin] + Nc1nc2[nH]cc(CCc3ccc(C(=O)N[C@@H](CCC(=O)O)C(=O)O)cc3)c2c(=O)[nH]1 [Pemetrexed] (partner 0.2 µM)
Procedure, shortened: as §1

[4] = compound: CO[C@@H]1[C@H](N(C)C(=O)c2ccccc2)C[C@H]2O[C@]1(C)n1c3ccccc3c3c4c(c5c6ccccc6n2c5c31)C(=O)NC4 [Midostaurin] + O=C(c1cc(Cc2n[nH]c(=O)c3ccccc23)ccc1F)N1CCN(C(=O)C2CC2)CC1 [Olaparib] (partner 8 µM)
Procedure, shortened: as §1

[5] = compound: COc1cc(-c2nn([C@H]3CC[C@H](N4CCN(C(C)=O)CC4)CC3)c3ncnc(N)c23)ccc1NC(=O)c1cc2ccccc2n1C + CC(C)C[C@H](NC(=O)[C@H](Cc1ccccc1)NC(=O)c1cnccn1)B(O)O [Bortezomib] (partner 0.002 µM)
Procedure, shortened: as §1

Row | Cell Line | relative viability ([1]; first compound 0.0128 µM) | relative viability ([1]; first compound 0.04048 µM) | relative viability ([1]; first compound 0.128 µM) | relative viability ([1]; first compound 1.28 µM) | relative viability ([2]; first compound 0.0128 µM) | relative viability ([2]; first compound 0.04048 µM) | relative viability ([2]; first compound 0.128 µM) | relative viability ([2]; first compound 1.28 µM) | relative viability ([3]; first compound 0.01 µM) | relative viability ([3]; first compound 0.03162 µM) | relative viability ([3]; first compound 0.1 µM) | relative viability ([3]; first compound 0.3162 µM) | relative viability ([4]; first compound 0.01 µM) | relative viability ([4]; first compound 0.03162 µM) | relative viability ([4]; first compound 0.1 µM) | relative viability ([4]; first compound 0.3162 µM) | relative viability ([5]; first compound 0.0128 µM) | relative viability ([5]; first compound 0.04048 µM) | relative viability ([5]; first compound 0.128 µM) | relative viability ([5]; first compound 1.28 µM)
1 | 201T | 0.729 | 0.639 | 0.571 | 0.432 | 1.11 | 1.04 | 1 | 0.915 | 0.345 | 0.311 | 0.323 | 0.32 | 0.833 | 0.801 | 0.815 | 0.86 | 1.14 | 1.16 | 1.06 | 1.03
2 | A549 | 0.538 | 0.63 | 0.429 | 0.501 | 0.961 | 1.02 | 0.953 | 1.06 |  |  |  |  | 0.256 | 0.39 | 0.359 | 0.216 |  |  |  | 
3 | A-427 | 0.652 | 0.127 | 0.703 | 0.493 | 1.18 | 0.944 | 0.852 | 0.907 | 1.04 | 0.888 | 0.94 | 1.08 | 0.711 | 0.654 | 0.713 | 0.725 | 1.04 | 0.782 | 0.935 | 0.96
4 | ABC-1 | 0.805 | 0.648 | 0.613 | 0.631 | 1.26 | 1.17 | 1.04 | 0.891 |  |  |  |  | 0.691 | 1.31 | 0.59 | 0.928 | 0.212 | 0.32 | 0.26 | 0.3
5 | BEN | 0.559 | 0.54 | 0.58 | 0.432 | 0.588 | 0.646 | 0.878 | 0.401 | 0.809 | 0.674 | 0.665 | 0.752 | 1.12 | 1.24 | 0.928 | 1.13 | 0.667 | 0.765 | 0.824 | 0.53
6 | CAL-12T | 0.392 | 0.397 | 0.512 | 0.281 | 0.615 | 0.686 | 0.659 | 0.384 | 1.19 | 1.19 | 1.28 | 0.765 | 0.76 | 0.585 | 0.681 | 0.633 | 1.11 | 0.943 | 0.938 | 0.972
7 | COR-L23 | 0.919 | 0.666 | 0.801 | 0.839 | 0.933 | 1.2 | 0.789 | 0.992 | 0.195 | 0.205 | 0.195 | 0.188 | 0.386 | 0.269 | 0.279 | 0.255 | 0.991 | 1.4 | 0.873 | 0.908
8 | COR-L 105 | 0.417 | 0.427 | 0.321 | 0.243 | 0.3 | 0.327 | 0.352 | 0.31 | 1.15 | 0.945 | 1.11 | 0.873 | 0.829 | 0.626 | 0.527 | 0.616 | 0.73 | 0.854 | 0.657 | 0.386
9 | Calu-6 | 0.916 | 0.893 | 0.826 | 0.76 | 1.08 | 1.01 | 0.91 | 0.875 |  |  |  |  | 0.421 | 0.638 | 0.509 | 0.495 | 1.04 | 1.05 | 0.869 | 0.754
10 | ChaGo-K-1 | 0.66 | 0.669 | 0.587 | 0.644 |  |  |  |  | 0.25 | 0.266 | 0.256 | 0.277 | 0.439 | 0.404 | 0.338 | 0.433 | 0.922 | 1.13 | 0.865 | 0.973
11 | EBC-1 | 0.407 | 0.447 | 0.416 | 0.393 | 0.203 | 0.23 | 0.205 | 0.19 |  |  |  |  | 0.719 | 0.589 | 0.673 | 0.679 | 0.575 | 0.554 | 0.521 | 0.481
12 | EKVX | 0.458 | 0.475 | 0.401 | 0.245 | 0.217 | 0.203 | 0.189 | 0.154 | 0.514 | 0.349 | 0.379 | 0.404 | 0.836 | 0.847 | 0.738 | 0.775 | 1.07 | 1.1 | 0.917 | 0.401
13 | EMC-BAC-2 | 0.547 | 0.501 | 0.504 | 0.494 | 0.909 | 0.935 | 0.842 | 0.801 | 0.407 | 0.431 | 0.383 | 0.457 | 0.459 | 0.497 | 0.411 | 0.374 | 1.03 | 1.12 | 1.04 | 1.12
14 | EPLC-272H | 0.369 | 0.258 | 0.29 | 0.311 | 0.815 | 0.891 | 0.997 | 0.86 | 0.229 | 0.357 | 0.256 | 0.256 | 0.659 | 0.729 | 0.658 | 0.372 | 0.993 | 0.933 | 0.952 | 0.902
